The test system of this experiment is C3AKF1 mice, hamster liver cystadenocarcinoma s.c., tumor weight T/C. As to the kind of experiment: NCI In Vivo Anticancer Drug Screen. Data for tumor model Cystadenocarcinoma, Liver (No. 1) (Hamster) (subcutaneous) in C3AKF1 (CHKRF1) mice. To be noted: endpoint: mean tumor weight, schedule: Q01DX010 (ip), higher = larger tumour. As for the experimental part:
The antitumor activity of compounds was measured in mice bearing transplantable tumors. Survival or tumor size were measured and the results are expressed as the measurement made in the treated group (T) divided by the measurement made in the vehicle treated control group (C). The tumor model used in this assay is Cystadenocarcinoma, Liver (No. 1) (Hamster) (subcutaneous) in C3AKF1 (CHKRF1) mice

Where [1] appears, read: dose: 1.0 mg/kg/injection, vehicle: carboxymethylcellulose (CMC).
[2] abbreviates: dose: 15.0 mg/kg/injection, vehicle: carboxymethylcellulose (CMC).
[3] abbreviates: dose: 62.0 mg/kg/injection, vehicle: carboxymethylcellulose (CMC).
Setting [4] is: dose: 125.0 mg/kg/injection, vehicle: carboxymethylcellulose (CMC).
Setting [5] is: dose: 125.0 mg/kg/injection, vehicle: saline.
Setting [6] is: dose: 250.0 mg/kg/injection, vehicle: saline.
Setting [7] is: dose: 500.0 mg/kg/injection, vehicle: saline.
Setting [8] is: dose: 250.0 mg/kg/injection, vehicle: carboxymethylcellulose (CMC).
[9] abbreviates: dose: 500.0 mg/kg/injection, vehicle: carboxymethylcellulose (CMC).
The mark [10] stands for this setting: dose: 62.5 mg/kg/injection, vehicle: carboxymethylcellulose (CMC).
[11] abbreviates: dose: 2.0 mg/kg/injection, vehicle: carboxymethylcellulose (CMC).
The mark [12] stands for this setting: dose: 4.0 mg/kg/injection, vehicle: carboxymethylcellulose (CMC).
The mark [13] stands for this setting: dose: 25.0 mg/kg/injection, vehicle: carboxymethylcellulose (CMC).
Setting [14] is: dose: 50.0 mg/kg/injection, vehicle: carboxymethylcellulose (CMC).
[15] abbreviates: dose: 100.0 mg/kg/injection, vehicle: carboxymethylcellulose (CMC).
Where [16] appears, read: dose: 45.0 mg/kg/injection, vehicle: carboxymethylcellulose (CMC).
Setting [17] is: dose: 10.0 mg/kg/injection, vehicle: carboxymethylcellulose (CMC).
The mark [18] stands for this setting: dose: 200.0 mg/kg/injection, vehicle: carboxymethylcellulose (CMC).
Where [19] appears, read: dose: 400.0 mg/kg/injection, vehicle: carboxymethylcellulose (CMC).
Where [20] appears, read: dose: 20.0 mg/kg/injection, vehicle: saline.

Where “and” joins values, the source holds several entries; their conditions need not be identical. Equal entries are not always repeated. Records with an inconclusive call do not appear.

For the compound `CC1(C)N=C(N)N=C(N)N1c1cccc(Br)c1`, the T/C by setting is: (dose: 4.4 mg/kg/injection, vehicle: carboxymethylcellulose (CMC)) 82 % of control; (dose: 6.6 mg/kg/injection, vehicle: carboxymethylcellulose (CMC)) 84 % of control.
For `Cn1cnc([N+](=O)[O-])c1Sc1nc(N)nc2c1ncn2C1OC(CO)C(O)C1O` (stereo not given), the T/C is, setting by setting: under setting [1], 124 % of control; (dose: 3.0 mg/kg/injection, vehicle: carboxymethylcellulose (CMC)) 69 % of control; under setting [2], 88 % of control.
Take `CCOC1=CCCCC1`: the T/C under setting [3] was 94 % of control; the T/C under setting [4] is 106 % of control; the T/C under setting [5] is 48 % of control; the T/C under setting [6] is 95 % of control; the T/C under setting [7] was 99 % of control.
For `COC(=S)SCN(CSC(=S)OC)c1ccccc1Cl`, the T/C is 99 % of control under setting [5], 84 % of control under setting [6] and 111 % of control under setting [7].
Take `CCCC(=O)NC1=C(N2CC2)C(=O)C(NC(=O)CCC)=C(N2CC2)C1=O`: the T/C (dose: 0.5 mg/kg/injection, vehicle: saline) is 69 % of control and 86 % of control; the T/C (dose: 0.75 mg/kg/injection, vehicle: saline) was 47 % of control and 49 % of control; the T/C (dose: 1.7 mg/kg/injection, vehicle: saline) was 32 % of control and 48 % of control; the T/C (dose: 2.6 mg/kg/injection, vehicle: saline) is 14 % of control.
In the case of `Nc1nc(SCc2ccccc2)c2ncn(C3CCCC3)c2n1`, the T/C was 120 % of control under setting [3], 98 % of control under setting [4], 91 % of control under setting [8] and 81 % of control under setting [9].
With `CC1(C)CC(C)(c2ccccc2)c2ccccc21` (stereo not given), the T/C by setting is: under setting [10], 97 % of control; under setting [4], 87 % of control; under setting [8], 90 % of control; under setting [9], 65 % of control.
For `N#CCSc1nc(N)nc2nc[nH]c12`, the T/C is, setting by setting: under setting [11], 87 % of control; under setting [12], 102 % of control; (dose: 8.0 mg/kg/injection, vehicle: carboxymethylcellulose (CMC)) 98 % of control; (dose: 16.0 mg/kg/injection, vehicle: carboxymethylcellulose (CMC)) 99 % of control.
Turning to `CCN(CC)CC(C)Nc1ccc(C)c2sc3ccccc3c(=O)c12` (stereo not given), the T/C runs as follows: under setting [13], 98 % of control; under setting [14], 87 % of control; under setting [15], 76 % of control.
`O=c1c[n+](-c2ccccc2)[nH]o1`: the T/C is 66 % of control (dose: 22.5 mg/kg/injection, vehicle: carboxymethylcellulose (CMC)) and 41 % of control under setting [16].
For the compound `O=c1[nH]cnc2n[nH]nc12`, the T/C reads like this: under setting [10], 112 % of control; under setting [4], 77 % of control; under setting [8], 60 % of control; under setting [9], 68 % of control.
With `C=CCNc1ccc(C)cc1`, the T/C is, setting by setting: (dose: 85.0 mg/kg/injection, vehicle: saline) 64 % of control; under setting [5], 91 % of control; (dose: 185.0 mg/kg/injection, vehicle: saline) 78 % of control.
With `CC(C)NCC(=O)c1ccc(O)c(O)c1`, the T/C is, setting by setting: (dose: 50.0 mg/kg/injection, vehicle: saline) 75 % of control; (dose: 100.0 mg/kg/injection, vehicle: saline) 59 % of control; (dose: 200.0 mg/kg/injection, vehicle: saline) 90 % of control.
For `Cc1ccc(N2CCN(CCCN3CCN(c4ccc(Cl)cc4)CC3)CC2)cc1`, the T/C (dose: 7.5 mg/kg/injection, vehicle: carboxymethylcellulose (CMC)) was 94 % of control; the T/C under setting [2] was 98 % of control; the T/C (dose: 30.0 mg/kg/injection, vehicle: carboxymethylcellulose (CMC)) is 94 % of control.
On to `O=C(O)CCc1c[nH]c2ccc(N(CCCl)CCCl)cc12`, for which the T/C reads like this: (dose: 1.2 mg/kg/injection, vehicle: carboxymethylcellulose (CMC)) 109 % of control; (dose: 2.5 mg/kg/injection, vehicle: carboxymethylcellulose (CMC)) 97 % of control; (dose: 5.0 mg/kg/injection, vehicle: carboxymethylcellulose (CMC)) 77 % of control; under setting [17], 69 % of control.
Consider `Nc1nc(N)c(N=Nc2ccccc2)c(=O)[nH]1`, for which the T/C by setting is: under setting [14], 100 % of control; under setting [15], 110 % of control; under setting [18], 93 % of control; under setting [19], 100 % of control.
As to `CCC(=O)NC1=C(N2CC2)C(=O)C(NC(=O)CC)=C(N2CC2)C1=O`, the T/C reads like this: (dose: 0.6 mg/kg/injection, vehicle: saline) 97 % of control; (dose: 1.2 mg/kg/injection, vehicle: saline) 76 % of control.
For `CCCCSc1nc(N)nc2c1ncn2CC(C)CC` (stereo not given), the T/C by setting is: under setting [3], 64 % of control; under setting [4], 82 % of control; under setting [8], 86 % of control and 94 % of control; (dose: 750.0 mg/kg/injection, vehicle: carboxymethylcellulose (CMC)) 54 % of control.
On to `COc1ccc(-c2c(CC(=O)O)c3cc(OC)ccc3n2Cc2ccc(Cl)cc2)cc1`, for which the T/C was 90 % of control under setting [4], 100 % of control under setting [8] and 100 % of control under setting [9].
Turning to `O=C(O)c1ccc(-c2ccccc2)cc1`, the T/C is 95 % of control under setting [14] and 49 % of control under setting [15].
Consider `O=P(N1CC1)(N1CC1)N1CC1`, for which the T/C reads like this: (dose: 0.5 mg/kg/injection, vehicle: carboxymethylcellulose (CMC)) 93 % of control; under setting [1], 65 % of control; under setting [11], 71 % of control; under setting [12], 48 % of control.
Take `CCN(CC)Cc1cc(Nc2c3ccccc3nc3cc(Cl)ccc23)ccc1O`: the T/C reads like this: (dose: 6.25 mg/kg/injection, vehicle: carboxymethylcellulose (CMC)) 84 % of control; (dose: 12.5 mg/kg/injection, vehicle: carboxymethylcellulose (CMC)) 106 % of control; under setting [13], 87 % of control; under setting [14], 88 % of control.
On to `CCN(CC)CCNc1ccc([N+](=O)[O-])c2sc3ccccc3c(=O)c12`, for which the T/C runs as follows: under setting [20], 98 % of control; (dose: 40.0 mg/kg/injection, vehicle: saline) 70 % of control.
As to `CC(C)CCSc1nc(N)nc2nc[nH]c12`, the T/C reads like this: under setting [16], 74 % of control; (dose: 90.0 mg/kg/injection, vehicle: carboxymethylcellulose (CMC)) 70 % of control; (dose: 180.0 mg/kg/injection, vehicle: carboxymethylcellulose (CMC)) 94 % of control.
With `COc1ccccc1NC(=O)CSC(N)=O`, the T/C reads like this: under setting [14], 92 % of control; under setting [15], 86 % of control; under setting [18], 95 % of control; under setting [19], 38 % of control.
On to `CCCn1cnc2c(SCc3ccccc3Cl)nc(N)nc21`, for which the T/C runs as follows: under setting [13], 88 % of control; under setting [15], 90 % of control and 105 % of control; under setting [19], 96 % of control.
Consider `CCOC(=O)C(Cc1ccc(N(CCCl)CCCl)cc1)NC=O` (stereo not given), for which the T/C was 93 % of control under setting [17]; 93 % of control (dose: 20.0 mg/kg/injection, vehicle: carboxymethylcellulose (CMC)); 55 % of control (dose: 40.0 mg/kg/injection, vehicle: carboxymethylcellulose (CMC)).
Consider `O=C1NC2C(NC(=O)N2Cl)N1Cl` (stereo not given), for which, under setting [20], the T/C is 101 % of control.

The values above are taken from PubChem BioAssay AID234 (DTP/NCI, 2004).
